Data on 60 compounds can be found in PubChem BioAssay AID624361 (Broad Institute, 2012).

Results filed as inconclusive are left out. Activity calls are given as the source filed them. The rule behind the calls is not given here.

The first assay has as its system LMP1-induced NF-kappaB luciferase reporter cells, luminescence. As to the kind of experiment: inhibitors of LMP1-driven NF-kB reporter, dose response, cell-based, EBV LMP1, luciferase, dry powder, set 2 (AID 624361).
Conditions: not given
With `O=C(C[C@@H]1CC[C@@H]2[C@H](COC[C@@H](O)CN2Cc2ccc(Oc3ccccc3)cc2)O1)N1CCc2ccccc2C1`, the AC35 was 17.8 µM.
Regarding `C[C@@H]1CN([C@@H](C)CO)C(=O)Cc2cc(NC(=O)Cc3ccccc3)ccc2O[C@H]1CN(C)Cc1ccc(C(F)(F)F)cc1`, the AC35 is 30 µM.
The same measure, in the same setting: under `COc1ccccc1C#Cc1cnc2c(c1)C(=O)N([C@@H](C)CO)C[C@H](C)[C@@H](CN(C)C(=O)c1ccc3c(c1)OCO3)O2` stands 31.2 µM; under `Cc1ccc(S(=O)(=O)N(C)C[C@H]2Oc3cc(C#Cc4ccncc4)ccc3S(=O)(=O)N([C@@H](C)CO)C[C@@H]2C)cc1`, 10.2 µM.
The same measure, in the same setting: under `Cc1noc(C)c1S(=O)(=O)Nc1ccc2c(c1)C(=O)N([C@@H](C)CO)C[C@@H](C)[C@H](CN(C)Cc1ccc(C(F)(F)F)cc1)OCCCC[C@@H](C)O2` stands 31.7 µM.
Still for that read-out and setting: under `Cc1noc(C)c1S(=O)(=O)Nc1ccc2c(c1)C(=O)N([C@H](C)CO)C[C@H](C)[C@@H](CN(C)Cc1ccc(C(F)(F)F)cc1)OCCCC[C@H](C)O2` stands 22.1 µM; under `Cc1noc(C)c1S(=O)(=O)Nc1ccc2c(c1)C(=O)N([C@H](C)CO)C[C@H](C)[C@H](CN(C)Cc1ccc(C(F)(F)F)cc1)OCCCC[C@@H](C)O2`, 33.8 µM; under `N#C[C@@H]1[C@H](c2ccc(C#Cc3ccccc3F)cc2)[C@@H](CO)N1C(=O)c1cccnc1`, 0.9 µM.
With `COc1cccc(S(=O)(=O)N(C)C[C@@H]2Oc3cc(C4=CCCCC4)ccc3S(=O)(=O)N([C@@H](C)CO)C[C@@H]2C)c1`, the AC35 was 24 µM.
Turning to `COc1ccc(NC(=O)N(C)C[C@@H]2Oc3cc(C#CCC(C)C)ccc3S(=O)(=O)N([C@@H](C)CO)C[C@@H]2C)cc1`, the AC35 was 28.3 µM.
For the compound `COc1cccc(S(=O)(=O)N(C)C[C@@H]2Oc3cc(C4=CCCCC4)ccc3S(=O)(=O)N([C@@H](C)CO)C[C@H]2C)c1`, the AC35 was 20.9 µM.
The same measure, in the same setting: next, `C[C@H]1CN([C@@H](C)CO)S(=O)(=O)c2ccc(C#Cc3ccncc3)cc2O[C@H]1CN(C)C(=O)Nc1ccc2c(c1)OCO2`: 14.8 µM; `CC(C)(C)[S@@](=O)N1Cc2cc(C(=O)NCc3ccccc3F)nc(-c3cccc(-c4cccnc4)c3)c2[C@H]1CCO`: 29.5 µM.
Turning to `CC(C)c1ccc(NC(=O)C[C@H]2CC[C@H]3[C@@H](COc4ccc(NC(=O)Nc5ccc(F)c(F)c5)cc4C(=O)N3C)O2)cc1`, the AC35 was 18.1 µM.
Same read-out and setting: next, `Cc1noc(C)c1S(=O)(=O)Nc1ccc2c(c1)C(=O)N([C@H](C)CO)C[C@H](C)[C@H](CN(C)Cc1ccc(C(F)(F)F)cc1)OCCCC[C@H](C)O2`: 27.8 µM; `O=C(Nc1ccc(C(F)(F)F)cc1)Nc1ccc2c(c1)[C@@H]1C[C@H](CC(=O)N3CCc4ccccc4C3)O[C@@H](CO)[C@@H]1O2`: 9.85 µM; `CN1C(=O)c2cc(NC(=O)c3ccc(C(F)(F)F)cc3)ccc2OC[C@@H]2O[C@@H](CC(=O)NC3Cc4ccccc4C3)CC[C@H]21`: 11.6 µM.
On to `C[C@@H]1CN([C@H](C)CO)S(=O)(=O)c2ccc(C#C[C@@H](C)O)cc2O[C@H]1CN(C)Cc1ccc(-c2ccccc2)cc1`, for which the AC35 was 22.4 µM.
`COc1cccc(C#Cc2ccc([C@@H]3[C@@H](C#N)N(C(=O)c4ccccn4)[C@@H]3CO)cc2)c1`: the AC35 was 18 µM.
For `O=C(C[C@@H]1C[C@H]2c3cc(NS(=O)(=O)c4ccc(F)cc4)ccc3O[C@H]2[C@@H](CO)O1)NCc1ccc(Oc2ccccc2)cc1`, the AC35 was 14.7 µM.
Same read-out and setting: next, `C[C@@H]1CN([C@@H](C)CO)S(=O)(=O)c2ccc(C#C[C@@H](C)O)cc2O[C@H]1CN(C)Cc1ccc(-c2ccccc2)cc1`: 21.5 µM; `O=C(C[C@H]1C[C@H]2c3cc(NS(=O)(=O)c4ccc(F)cc4)ccc3O[C@H]2[C@H](CO)O1)NCc1ccc(Oc2ccccc2)cc1`: 10.3 µM; `O=C(C[C@H]1CC[C@H]2[C@@H](COC[C@@H](O)CN2Cc2ccc3c(c2)OCO3)O1)Nc1ccc(-c2ccccc2)cc1`: 16.1 µM.
The same measure, in the same setting: next, `O=C(C[C@H]1C[C@@H]2c3cc(NS(=O)(=O)c4ccc(F)cc4)ccc3O[C@@H]2[C@@H](CO)O1)NCc1ccc(Oc2ccccc2)cc1`: 12.3 µM.
Still for that read-out and setting: next, `COc1ccccc1C#Cc1ccc2c(c1)O[C@H](CN(C)Cc1cccnc1)[C@H](C)CN([C@H](C)CO)S2(=O)=O`: 20.3 µM; `C[C@@H]1CN([C@H](C)CO)S(=O)(=O)c2ccc(/C=C/c3ccccc3)cc2O[C@H]1CN(C)C(=O)NC1CCCCC1`: 19.3 µM; `Cc1noc(C)c1S(=O)(=O)Nc1ccc2c(c1)C(=O)N([C@@H](C)CO)C[C@H](C)[C@H](CN(C)Cc1ccc(C(F)(F)F)cc1)OCCCC[C@H](C)O2`: 33.4 µM.
With `N#C[C@H]1[C@@H](c2ccc(-c3cccnc3)cc2)[C@@H](CO)N1C(=O)Nc1ccc(F)cc1`, the AC35 was 34.3 µM.
Consider `C[C@H](CO)N1C[C@H](C)[C@H](CN(C)C(=O)NC2CCCCC2)Oc2cc(/C=C/c3ccccc3)ccc2S1(=O)=O`, for which the AC35 is 24 µM.
Regarding `COc1ccc(S(=O)(=O)N(C)C[C@@H]2Oc3ncc(/C=C/c4ccccc4)cc3C(=O)N([C@@H](C)CO)C[C@H]2C)cc1`, the AC35 was 28.6 µM.
In the case of `Cc1noc(C)c1S(=O)(=O)Nc1ccc2c(c1)C(=O)N([C@H](C)CO)C[C@@H](C)[C@@H](CN(C)Cc1ccc(C(F)(F)F)cc1)OCCCC[C@H](C)O2`, the AC35 is 26.4 µM.
`O=C(C[C@@H]1C[C@@H]2c3cc(NS(=O)(=O)c4ccc(F)cc4)ccc3O[C@@H]2[C@@H](CO)O1)NCc1ccc(Oc2ccccc2)cc1`: the AC35 was 12.3 µM.
`Cc1cc(C(=O)Nc2ccc3c(c2)C(=O)N(C)[C@H]2CC[C@@H](CC(=O)NCc4ccc(-c5ccccc5)cc4)O[C@H]2CO3)no1`: the AC35 was 14.2 µM.
The same measure, in the same setting: under `C[C@@H]1CN([C@H](C)CO)C(=O)Cc2cc(NC(=O)Cc3ccccc3)ccc2O[C@@H]1CN(C)Cc1ccc(C(F)(F)F)cc1` stands 31.5 µM.
On to `Cc1cc(C(=O)Nc2ccc3c(c2)C(=O)N(C)[C@@H]2CC[C@@H](CC(=O)NCc4ccc(-c5ccccc5)cc4)O[C@H]2CO3)no1`, for which the AC35 was 4.76 µM.
On the same count and under the same terms, next, `O=C(Nc1ccc(C(F)(F)F)cc1)Nc1ccc2c(c1)[C@@H]1C[C@H](CC(=O)N3CCc4ccccc4C3)O[C@H](CO)[C@@H]1O2`: 8.02 µM.
As to `COc1cccc(S(=O)(=O)N(C)C[C@H]2Oc3cc(C4=CCCCC4)ccc3S(=O)(=O)N([C@@H](C)CO)C[C@@H]2C)c1`, the AC35 was 20.2 µM.
Consider `CN(C)c1ccc2c(c1)[C@@H]1C[C@@H](CC(=O)NCc3ccc(Oc4ccccc4)cc3)O[C@H](CO)[C@@H]1O2`, for which the AC35 was 12.9 µM.
On to `CC(C)NC(=O)N1Cc2cc(C(=O)NC3Cc4ccccc4C3)nc(-c3cccc(-c4cccnc4)c3)c2[C@@H]1CCO`, for which the AC35 is 23.7 µM.
Still for that read-out and setting: under `CCCNC(=O)c1cc2c(c(-c3cccc(-c4cccc(F)c4)c3)n1)[C@H](CCO)N([S@@](=O)C(C)(C)C)C2` stands 30.6 µM; under `CN(C)c1ccc2c(c1)[C@@H]1C[C@H](CC(=O)NCc3ccc(Oc4ccccc4)cc3)O[C@@H](CO)[C@@H]1O2`, 11.4 µM; under `Cc1noc(C)c1S(=O)(=O)Nc1ccc2c(c1)C(=O)N([C@@H](C)CO)C[C@@H](C)[C@H](CN(C)Cc1ccc(C(F)(F)F)cc1)OCCCC[C@H](C)O2`, 25.6 µM.
Same read-out and setting: under `O=C(C[C@@H]1CC[C@H]2[C@@H](COC[C@H](O)CN2Cc2ccc(Oc3ccccc3)cc2)O1)N1CCc2ccccc2C1` stands 25.7 µM; under `Cc1noc(C)c1S(=O)(=O)Nc1ccc2c(c1)C(=O)N([C@@H](C)CO)C[C@H](C)[C@@H](CN(C)Cc1ccc(C(F)(F)F)cc1)OCCCC[C@H](C)O2`, 30.3 µM; under `Cc1noc(C)c1S(=O)(=O)Nc1ccc2c(c1)C(=O)N([C@@H](C)CO)C[C@H](C)[C@@H](CN(C)Cc1ccc(C(F)(F)F)cc1)OCCCC[C@@H](C)O2`, 21.5 µM.
Still for that read-out and setting: under `N#C[C@H]1[C@H](c2ccc(C#Cc3ccccc3F)cc2)[C@@H](CO)N1C(=O)c1cccnc1` stands 22.8 µM; under `COc1ccccc1C#Cc1ccc2c(c1)O[C@H](CN(C)Cc1cccnc1)[C@H](C)CN([C@@H](C)CO)S2(=O)=O`, 18.3 µM.
`CN(C)C(=O)c1cccc(-c2cccc(-c3nc(C(=O)NCc4ccccc4)cc4c3[C@@H](CCO)N([S@](=O)C(C)(C)C)C4)c2)c1`: the AC35 is 16.5 µM.

Test system in the next assay: not listed separately
Described as above. Particulars: LMP1-induced NF-kappaB luciferase reporter cells, luminescence; at 35 µM (top of the series). Background: In a reporter assay the amount or activity of a reporter protein is the signal.
Take `C[C@@H](NC(=O)C[C@H]1C=C[C@@H](NC(=O)Cc2ccccn2)[C@H](CO)O1)c1ccccc1`: the activity change, negative = inhibition is -5.56% (inactive).
The same measure, in the same setting: next, `C[C@H](NC(=O)C[C@H]1C=C[C@@H](NC(=O)Cc2ccccn2)[C@H](CO)O1)c1ccccc1`: -1.8% (inactive); `CS(=O)(=O)Nc1ccc2c(c1)[C@H]1C[C@@H](CC(=O)NCC3CC3)O[C@@H](CO)[C@H]1O2`: 8.63% (inactive).
In the case of `C[C@@H](NC(=O)C[C@H]1C[C@@H]2c3cc(NC(=O)c4cccnc4)ccc3O[C@@H]2[C@@H](CO)O1)c1ccccc1`, the activity change, negative = inhibition was -0.38% (inactive).
In the case of `C[C@@H]1CN([C@H](C)CO)C(=O)c2c(c3ccccc3n2C)-c2ccccc2CO[C@H]1CN(C)C(=O)Nc1ccc(F)cc1`, the activity change, negative = inhibition was -3.16% (inactive).
Same read-out and setting: under `C[C@@H]1CN([C@H](C)CO)C(=O)c2c(c3ccccc3n2C)-c2ccccc2CO[C@@H]1CN(C)C(=O)Nc1ccc(F)cc1` stands -8.91% (inactive); under `C[C@@H]1CN([C@@H](C)CO)C(=O)Cc2cc(NC(=O)Cc3ccccc3)ccc2O[C@@H]1CN(C)Cc1ccc(C(F)(F)F)cc1`, -12.6% (inactive).
On the same count and under the same terms, under `C[C@@H](NC(=O)C[C@H]1C=C[C@H](NC(=O)Cc2ccccn2)[C@@H](CO)O1)c1ccccc1` stands 9.43% (inactive); under `O=C(C[C@@H]1C[C@H]2c3cc(NS(=O)(=O)c4ccc(F)cc4)ccc3O[C@H]2[C@@H](CO)O1)NC1CCCCC1`, -2.44% (inactive).
The same measure, in the same setting: next, `COc1ccccc1CNC(=O)C[C@H]1C[C@@H]2c3cc(NC(=O)CN(C)C)ccc3O[C@@H]2[C@@H](CO)O1`: 0.74% (inactive); `C[C@H](CO)N1C[C@H](C)[C@H](CN(C)Cc2ccc(Oc3ccccc3)cc2)Oc2ccc(NC(=O)CCCN(C)C)cc2C1=O`: 16.2% (inactive).
For the compound `O=C(C[C@@H]1C[C@@H]2c3cc(NC(=O)c4cccnc4)ccc3O[C@@H]2[C@H](CO)O1)NCC(F)(F)F`, the activity change, negative = inhibition is -2.29% (inactive).
